Results as given in patent US20250129078A1, “ERBB2 INHIBITORS” (Cogent Biosciences, Inc., priority 2023, published 2025).
Read-outs that look alike come from different tables or passages of the source.

Columns and labels:
EGFR WT = EGFR WT (Homo sapiens (Human), UniProt P00533); test: ErbB enzyme assay (CisBio HTRF-KinEASE-TK), EGFR WT; assay type: biochemical; settings: ATP at Km (25 μM), 1 h incubation
Method in brief: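 Compounds, serially diluted three-fold, were incubated with enzyme for 1 h at ambient temperature. Detection reagents were then added for a further hour, and the 655/620 nm HTRF ratio was normalised to uninhibited and pre-quenched controls. IC50 was fitted with a four-parameter logistic model.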

ErbB2 V777L = ErbB2 V777L (Homo sapiens (Human), UniProt P04626, V777L); test: ErbB enzyme assay (CisBio HTRF-KinEASE-TK), ErbB2 V777L; assay type: biochemical
Sequence of ErbB2 V777L (P04626 23-1255 V777L): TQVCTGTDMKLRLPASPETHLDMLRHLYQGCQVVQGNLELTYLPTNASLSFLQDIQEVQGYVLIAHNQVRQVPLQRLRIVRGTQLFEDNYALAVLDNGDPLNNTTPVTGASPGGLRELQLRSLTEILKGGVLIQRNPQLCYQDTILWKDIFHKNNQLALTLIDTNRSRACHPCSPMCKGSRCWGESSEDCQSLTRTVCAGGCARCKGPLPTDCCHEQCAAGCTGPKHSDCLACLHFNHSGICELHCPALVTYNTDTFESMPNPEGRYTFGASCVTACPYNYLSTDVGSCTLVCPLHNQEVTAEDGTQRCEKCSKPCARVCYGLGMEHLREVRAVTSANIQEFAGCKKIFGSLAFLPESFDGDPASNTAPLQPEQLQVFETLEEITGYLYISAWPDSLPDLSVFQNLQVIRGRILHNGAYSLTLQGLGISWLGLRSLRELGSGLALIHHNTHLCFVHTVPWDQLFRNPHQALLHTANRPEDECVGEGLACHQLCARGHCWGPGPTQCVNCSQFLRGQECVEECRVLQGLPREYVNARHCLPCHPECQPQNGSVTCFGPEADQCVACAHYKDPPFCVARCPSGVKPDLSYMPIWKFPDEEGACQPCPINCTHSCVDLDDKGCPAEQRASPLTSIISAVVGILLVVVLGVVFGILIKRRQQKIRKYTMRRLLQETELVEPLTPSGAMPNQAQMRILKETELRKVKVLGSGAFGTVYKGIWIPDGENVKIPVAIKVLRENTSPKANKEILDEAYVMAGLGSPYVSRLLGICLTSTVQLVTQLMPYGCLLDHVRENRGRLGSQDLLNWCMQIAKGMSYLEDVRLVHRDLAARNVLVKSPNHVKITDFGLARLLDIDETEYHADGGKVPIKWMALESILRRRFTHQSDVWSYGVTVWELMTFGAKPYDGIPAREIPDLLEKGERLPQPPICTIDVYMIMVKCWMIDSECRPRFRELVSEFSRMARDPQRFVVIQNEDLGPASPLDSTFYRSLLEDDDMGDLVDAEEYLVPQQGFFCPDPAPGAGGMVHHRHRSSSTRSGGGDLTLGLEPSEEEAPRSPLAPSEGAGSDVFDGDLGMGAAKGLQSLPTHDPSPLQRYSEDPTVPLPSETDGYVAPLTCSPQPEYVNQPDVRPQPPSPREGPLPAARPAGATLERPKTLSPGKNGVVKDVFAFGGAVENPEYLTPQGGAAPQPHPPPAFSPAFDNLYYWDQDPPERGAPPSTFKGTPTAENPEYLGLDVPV
Method in brief: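 HTRF KinEASE-TK tyrosine-kinase read-out of substrate phosphorylation after a final 1 h at ambient temperature, from the 655/620 nm emission ratio.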

Sequence of EGFR WT (P00533 25-1210): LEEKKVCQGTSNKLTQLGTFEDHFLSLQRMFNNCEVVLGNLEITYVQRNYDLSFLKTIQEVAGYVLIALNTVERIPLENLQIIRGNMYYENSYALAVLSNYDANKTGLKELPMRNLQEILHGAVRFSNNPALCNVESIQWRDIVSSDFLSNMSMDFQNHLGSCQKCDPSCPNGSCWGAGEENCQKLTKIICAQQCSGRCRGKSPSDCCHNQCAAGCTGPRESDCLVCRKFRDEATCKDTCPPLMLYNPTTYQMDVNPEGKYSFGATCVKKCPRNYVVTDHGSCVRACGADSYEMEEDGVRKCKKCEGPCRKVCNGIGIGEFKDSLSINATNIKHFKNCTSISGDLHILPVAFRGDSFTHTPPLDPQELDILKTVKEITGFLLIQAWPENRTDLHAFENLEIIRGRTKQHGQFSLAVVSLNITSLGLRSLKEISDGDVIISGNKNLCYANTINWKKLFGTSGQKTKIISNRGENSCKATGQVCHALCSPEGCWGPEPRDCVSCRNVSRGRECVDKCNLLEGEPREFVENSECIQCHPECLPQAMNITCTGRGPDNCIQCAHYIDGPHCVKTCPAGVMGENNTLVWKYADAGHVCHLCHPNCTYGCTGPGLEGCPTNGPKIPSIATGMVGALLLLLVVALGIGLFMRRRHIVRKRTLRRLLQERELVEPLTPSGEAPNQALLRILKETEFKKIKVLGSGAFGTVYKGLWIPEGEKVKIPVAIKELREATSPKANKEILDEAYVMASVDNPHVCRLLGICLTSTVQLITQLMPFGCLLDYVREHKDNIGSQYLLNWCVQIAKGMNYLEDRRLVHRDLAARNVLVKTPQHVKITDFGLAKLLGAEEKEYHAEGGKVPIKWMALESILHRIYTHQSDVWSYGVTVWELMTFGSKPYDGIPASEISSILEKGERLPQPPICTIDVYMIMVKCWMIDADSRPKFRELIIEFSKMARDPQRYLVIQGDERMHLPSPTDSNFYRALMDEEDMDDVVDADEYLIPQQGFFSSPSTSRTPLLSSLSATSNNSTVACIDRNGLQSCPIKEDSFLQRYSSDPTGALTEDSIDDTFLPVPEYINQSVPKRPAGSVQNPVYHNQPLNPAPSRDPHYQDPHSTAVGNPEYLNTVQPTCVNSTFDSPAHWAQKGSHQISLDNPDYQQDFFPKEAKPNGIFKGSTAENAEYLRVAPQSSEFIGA

| SMILES | IC50 (EGFR WT) [nM] | IC50 (ErbB2 V777L) [nM] | IC50 (ErbB2 V777L; ErbB2 V777L enzyme, ATP at Km (110 μM), 1 h incubation) [nM] |
| --- | --- | --- | --- |
| C=CC(=O)N1CCN(c2ccc3ncnc(Nc4cc(C)c(Oc5ccc6c(c5)ncn6C(F)F)cc4OC)c3n2)C[C@H]1C [Compound 307, (R)-1-(4-(4-((4-((1-(difluoromethyl)-1H-benzo[d]imidazol-5-yl)oxy)-2-methoxy-5-methylphenyl)amino)pyrido[3,2-d]pyrimidin-6-yl)-2-methylpiperazin-1-yl)prop-2-en-1-one] | 100 to 500 | 100 to 500 |  |
| C=CC(=O)N1CCCN(c2ccc3ncnc(Nc4ccc(Oc5ccc6c(c5)nnn6C)c(C)c4)c3n2)CC1 [Compound 308, 1-(4-(4-((3-methyl-4-((1-methyl-1H-benzo[d][1,2,3]triazol-5-yl)oxy)phenyl)amino)pyrido[3,2-d]pyrimidin-6-yl)-1,4-diazepan-1-yl)prop-2-en-1-one] | 500 to 1000 | 100 to 500 |  |
| C=CC(=O)N1CCC2(CCN(c3ccc4ncnc(Nc5ccc(Oc6ccc7c(c6)nnn7C)c(C)c5)c4n3)C2)C1 (stereo not shown) [Compound 311, 1-(7-(4-((3-methyl-4-((1-methyl-1H-benzo[d][1,2,3]triazol-5-yl)oxy)phenyl)amino)pyrido[3,2-d]pyrimidin-6-yl)-2,7-diazaspiro[4.4]nonan-2-yl)prop-2-en-1-one] | ≥ 1000 | 500 to 1000 |  |
| C=CC(=O)N1CCN(c2ccc3ncnc(Nc4cc(C)c(Oc5ccc6c(c5)nnn6C)cc4OC(F)(F)F)c3n2)CC1 [Compound 312, 1-(4-(4-((5-methyl-4-((1-methyl-1H-benzo[d][1,2,3]triazol-5-yl)oxy)-2-(trifluoromethoxy)phenyl)amino)py-rido[3,2-d]pyrimidin-6-yl)piperazin-1-yl)prop-2-en-1-one] | 100 to 500 | 100 to 500 |  |
| C=CC(=O)N1CCN(c2ccc3ncnc(Nc4cc(C)c(Oc5ccc6c(c5)nnn6C)cc4OC(F)F)c3n2)CC1 [Compound 315, 1-(4-(4-((2-(difluoromethoxy)-5-methyl-4-((1-methyl-1H-benzo[d][1,2,3]triazol-5-yl)oxy)phenyl)amino)pyrido[3,2-d]pyrimidin-6-yl)piperazin-1-yl)prop-2-en-1-one] | 100 to 500 | 50 to 100 |  |
| C=CC(=O)N1CCN(c2ccc3ncnc(Nc4cc(C)c(Oc5ccc6c(c5)nnn6C)cc4OC)c3n2)C[C@H]1C [Compound 316, (R)-1-(4-(4-((2-methoxy-5-methyl-4-((1-methyl-1H-benzo[d][1,2,3]triazol-5-yl)oxy)phenyl)amino)pyrido[3,2-d]pyrimidin-6-y1)-2-methylpiperazin-1-yl)prop-2-en-1-one] | 100 to 500 |  | 50 to 100 |
| C=CC(=O)N1CCN(c2ccc3ncnc(Nc4cc(C)c(Oc5ccc6c(c5)nnn6C)cc4OC(F)(F)F)c3n2)C[C@H]1C [Compound 317, (R)-1-(2-methyl-4-(4-((5-methyl-4-((1-methyl-1H-benzo[d][1,2,3]triazol-5-yl)oxy)-2-(trifluoromethoxy)phenyl)amino)py-rido[3,2-d]pyrimidin-6-yl)piperazin-1-yl)prop-2-en-1-one] | 100 to 500 | 100 to 500 |  |
| C=CC(=O)N1CCN(c2ccc3ncnc(Nc4ccc(Oc5ccc6c(c5)nnn6C(F)F)c(C)c4)c3n2)C[C@H]1C [Compound 320, (R)-1-(4-(4-((4-((1-(difluoromethyl)-1H-benzo[d][1,2,3]triazol-5-yl)oxy)-3-methylphenyl)amino)pyrido[3,2-d]pyrimidin-6-yl)-2-methylpiperazin-1-yl)prop-2-en-1-one] | 100 to 500 | 100 to 500 |  |
| C=CC(=O)N1CCN(c2ccc3ncnc(Nc4ccc(Oc5ccc6c(c5)ncn6C(F)F)c(C)c4F)c3n2)CC1(C)C [Compound 321, 1-(4-(4-((4-((1-(difluoromethyl)-1H-benzo[d]imidazol-5-yl)oxy)-2-fluoro-3-methylphenyl)amino)pyrido[3,2-d]pyrimidin-6-y1)-2,2-dimethylpiperazin-1-yl)prop-2-en-1-one] | 500 to 1000 | 100 to 500 |  |
| C=CC(=O)N1CCN(c2ccc3ncnc(Nc4ccc(Oc5ccc6c(c5)nnn6C(F)F)c(C)c4F)c3n2)C[C@H]1C [Compound 323, (R)-1-(4-(4-((4-((1-(difluoromethyl)-1H-benzo[d][1,2,3]triazol-5-yl)oxy)-2-fluoro-3-methylphenyl)amino)pyrido[3,2-d]pyrimidin-6-yl)-2-methylpiperazin-1-yl)prop-2-en-1-one] | 100 to 500 | 500 to 1000 |  |
| C=CC(=O)N1CCN(c2ccc3ncnc(Nc4ccc(Oc5ccc6c(c5)nnn6C(F)F)c(C)c4)c3n2)CC1(C)C [Compound 324, 1-(4-(4-((4-((1-(difluoromethyl)-1H-benzo[d][1,2,3]triazol-5-yl)oxy)-3-methylphenyl)amino)pyrido[3,2-d]pyrimidin-6-yl)-2,2-dimethylpiperazin-1-yl)prop-2-en-1-one] | 100 to 500 | 100 to 500 |  |

The next lines start with the values.

| IC50 (EGFR WT) [nM] | IC50 (ErbB2 V777L) [nM] | IC50 (ErbB2 V777L; ErbB2 V777L enzyme, ATP at Km (110 μM), 1 h incubation) [nM] | SMILES |
| --- | --- | --- | --- |
| 100 to 500 | 100 to 500 |  | C=CC(=O)N1CCN(c2ccc3ncnc(Nc4ccc(Oc5ccc6c(c5)nnn6C)c(C)c4F)c3n2)C[C@@H]1C [Compound 325, (S)-1-(4-(4-((2-fluoro-3-methyl-4-((1-methyl-1H-benzo[d][1,2,3]triazol-5-yl)oxy)phenyl)amino)pyrido[3,2-d]pyrimidin-6-yl)-2-methylpiperazin-1-yl)prop-2-en-1-one] |
| 100 to 500 | 50 to 100 |  | C=CC(=O)N1CCN(c2ccc3ncnc(Nc4cc(F)c(Oc5ccc6c(c5)nnn6C)c(C)c4F)c3n2)C[C@H]1C [Compound 326, (R)-1-(4-(4-((2,5-difluoro-3-methyl-4-((1-methyl-1H-benzo[d][1,2,3]triazol-5-yl)oxy)phenyl)amino)pyrido[3,2-d]pyrimidin-6-yl)-2-methylpiperazin-1-yl)prop-2-en-1-one] |
| 100 to 500 | 100 to 500 |  | C=CC(=O)N1CCN(c2ccc3ncnc(Nc4cc(F)c(Oc5ccc6c(c5)nnn6C)c(C)c4F)c3n2)CC1(C)C [Compound 327, 1-(4-(4-((2,5-difluoro-3-methyl-4-((1-methyl-1H-benzo[d][1,2,3]triazol-5-yl)oxy)phenyl)amino)pyrido[3,2-d]pyrimidin-6-yl)-2,2-dimethylpiperazin-1-yl)prop-2-en-1-one] |
| 100 to 500 | 50 to 100 |  | C=CC(=O)N1CCN(c2ccc3ncnc(Nc4ccc(Oc5ccc6c(c5)nnn6C)c(C)c4)c3n2)C[C@H]1C1CC1 [Compound 335, (R)-1-(2-cyclopropyl-4-(4-((3-methyl-4-((1-methyl-1H-benzo[d][1,2,3]triazol-5-yl)oxy)phenyl)amino)pyrido[3,2-d]pyrimidin-6-yl)piperazin-1-yl)prop-2-en-1-one] |
| 500 to 1000 | 100 to 500 |  | C=CC(=O)N[C@H]1CN(c2ccc3ncnc(Nc4ccc(Oc5ccc6c(c5)nnn6C)c(C)c4)c3n2)CC(F)(F)C1 [Compound 342, (R)-N-(5,5-difluoro-1-(4-((3-methyl-4-((1-methyl-1H-benzo[d][1,2,3]triazol-5-yl)oxy)phenyl)amino)pyrido[3,2-d]pyrimidin-6-yl)piperidin-3-yl)acrylamide] |
| 100 to 500 | 100 to 500 |  | C=CC(=O)NC1(C(F)(F)F)CCN(c2ccc3ncnc(Nc4ccc(Oc5ccc6c(c5)nnn6C)c(C)c4F)c3n2)CC1 [Compound 345, N-(1-(4-((2-fluoro-3-methyl-4-((1-methyl-1H-benzo[d][1,2,3]triazol-5-yl)oxy)phenyl)amino)pyrido[3,2-d]pyrimidin-6-yl)-4-(trifluoromethyl)piperidin-4-yl)acrylamide] |
